Counter-ions that a name gives are not always drawn. Like-named read-outs stand apart in the source and are kept apart here.
Experiments:
human LPA4 receptor = target: T1, human LPA4 receptor (Homo sapiens, UniProt Q99677); experiment: LPA4/SRE-luc reporter assay in RH7777 cells stably expressing human LPA4 receptor and SRE-Luc2; type: cell-based
T1 construct: expressed in transfected cells; host or cells: rat hepatocellular carcinoma cell line RH7777, targeted integration at the rRosa26 site
Procedure: (§1) A stably expressing cell line that constantly expresses the human LPA4 receptor and SRE-Luc2 was established by the gene targeting introduction method of the rat hepatocellular carcinoma cell line RH7777 into rRosa26 site. Similarly, stably expressing cell lines for human LPA1 receptor and SRE-Luc2 were also established. Each cell line was seeded on a collagen-coated dish and maintained in culture, and cells were collected with trypsin EDTA and the required number (5×10^3 cells/well) was seeded on a 96-well plate. After culturing overnight at 37° C., LPA (Avanti Polar Lipids, Inc.) or each Example compound diluted with an assay medium added or not added with BSA was added, and the cells were cultured at 37° C. for 6 hr. Thereafter, a luciferase detection reagent (Bright-Glo, Promega) was added, and the chemiluminescence amount was quantified with an Envision (registered trade mark) multi-label counter (PerkinElmer) and used as an index of agonist activity.
(§2) The EC50 value of LPA or each Example compound was calculated using the […] Graph pad Prism for Windows ver.5.02 and ver.7.04. % Emax was expressed as the ratio of the maximum response (Emax) of LPA or each Example compound to the maximum response (Emax) of the positive control compound VPC 31144S (N-{(1S)-2-hydroxy-1-[(phosphonooxy)methyl]ethyl}(9Z) cctadec-9-enamide), with the Emax of the positive control compound VPC 31144S as 100%.

human LPA1 receptor = target: T2, human LPA1 receptor (Homo sapiens, UniProt Q92633); experiment: LPA1/SRE-luc reporter assay in RH7777 cells stably expressing human LPA1 receptor and SRE-Luc2; type: cell-based
T2 construct: expressed in transfected cells; host or cells: rat hepatocellular carcinoma cell line RH7777 (made 'similarly' to the LPA4 line)
T2 sequence (Q92633 whole entry): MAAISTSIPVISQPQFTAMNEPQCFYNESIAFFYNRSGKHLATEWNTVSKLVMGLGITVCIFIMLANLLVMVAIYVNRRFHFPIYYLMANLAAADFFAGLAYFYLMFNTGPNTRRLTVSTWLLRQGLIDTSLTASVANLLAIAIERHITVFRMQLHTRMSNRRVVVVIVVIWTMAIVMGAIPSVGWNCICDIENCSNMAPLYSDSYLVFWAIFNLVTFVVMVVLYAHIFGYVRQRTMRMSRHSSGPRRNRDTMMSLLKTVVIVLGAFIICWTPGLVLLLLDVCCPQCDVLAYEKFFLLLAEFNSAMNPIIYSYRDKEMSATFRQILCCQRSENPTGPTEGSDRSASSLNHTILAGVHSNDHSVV
Procedure: as §1, §2

Balb/c nu/nu mouse = experiment: Gel blood flow ratio in mice transplanted with Matrigel containing basicFGF; type: in vivo; conditions: 3 mg/kg tail vein once per day, day 5 to 7 after transplantation; vs solvent administration group, t-test p<0.01
Procedure: A 5-week-old male Balb/c nu/nu mouse (CLEA Japan, Inc.) was subcutaneously transplanted with 500 μL of Matrigel (Corning) admixed with recombinant mouse basicFGF (Biobyt Ltd.) to a final concentration of 200 ng/mL. The test compound was dissolved in a 50% aqueous ethanol solution at a concentration of 10 mg/mL to give a stock solution, diluted with phosphate-buffered saline (PBS) immediately before administration, and used for consecutive administration into the tail vein of mouse at a dose of 3 mg/kg once per day from the 5th day to the 7th day of the transplantation. On the 7th day of transplantation, after 4 hours from the administration of the test compound, Genhance750 (PerkinElmer) was administered to the tail vein, and 20 min later under isoflurane anesthesia, whole body fluorescence at 800 nm was imaged using an in vivo analyzer (IVIS Spectrum, PerkinElmer) at an excitation wavelength of 745 nm. The gel blood flow ratio was calculated by dividing the radiance of Matrigel by the radiance of the auricle.

[1] = system: mouse lung cancer cell line LLC-1; experiment: Tumor volume in mice transplanted with LLC-1, combination with paclitaxel; type: in vivo
Procedure: An 8-week-old female […] mouse (Nippon SLC) was subcutaneously transplanted with 1×10^6 cells/100 μL of mouse lung cancer cell line LLC-1 suspended in D-MEM medium containing 50% Matrigel (Corning). On the 9th day after transplantation of the cell line, 8 mice were grouped such that the tumor volume and body weight were uniform (Day 0). The tumor volume was calculated by measuring the minor axis and the major axis of the tumor with a vernier caliper (minor axis x minor axis x major axis/2). Example compound 16 was intraperitoneally administered every day from Day 0 at a dose of 30 mg/kg. As an existing anticancer drug, paclitaxel (paclitaxel injection, Pfizer) was intraperitoneally administered to mice at a dose of 20 mg/kg twice in total on Day 3 and Day 10. The tumor volume of each group was calculated every other day from Day 0 to Day 15. Phosphate-buffered saline in the same amount as the drug solution was administered to the solvent administration group.

[2] = Evaluation of chemical stability, preserved at 60° C. (sealed) for a week, UPLC; type: physicochemical
Procedure: About 0.5 mg of each of test sample (lysophosphatidic acid (LPA) and Example compound 16) preserved at 60° C. (sealed) for a week and non-preserved sample (at the start of testing) was weighed, and dissolved in a mixed solution (1 mL) of acetonitrile/water (1:1) to prepare test solutions. Test was performed by the liquid chromatographic method under the following conditions, and individual peak area % was determined. It was measured by Waters ACQUITY UPLC under the following conditions. • Detector: photodiode array (measurement wavelength 220 nm) • Column: Waters ACQUITY BEH C18 (2.1 mm×100 mm, 1.7 μm) • Column temperature: constant temperature around 40° C. • Mobile phase: Solution A; […] ammonium acetate in water (pH 8.5), • Solution B; […] ammonium acetate in acetonitrile/water (17:3) (pH8.5) • Concentration gradient control: B % 2→100% (15 min) • Flow rate: 0.5 mL/min • Injection volume: […] <Experimental Results>

[3] = BSA not added, read-out: LPA4/SRE-luc EC50
[4] = RH7777, read-out: LPA4/SRE-luc % Emax
[5] = BSA not added, read-out: LPA1/SRE-luc EC50
[6] = BSA added, read-out: LPA4/SRE-luc EC50
[7] = RH7777, BSA added, Emax of positive control VPC 31144S as 100%, read-out: LPA4/SRE-luc % Emax
[8] = BSA added, read-out: LPA1/SRE-luc EC50

T1 sequence (Q99677 whole entry): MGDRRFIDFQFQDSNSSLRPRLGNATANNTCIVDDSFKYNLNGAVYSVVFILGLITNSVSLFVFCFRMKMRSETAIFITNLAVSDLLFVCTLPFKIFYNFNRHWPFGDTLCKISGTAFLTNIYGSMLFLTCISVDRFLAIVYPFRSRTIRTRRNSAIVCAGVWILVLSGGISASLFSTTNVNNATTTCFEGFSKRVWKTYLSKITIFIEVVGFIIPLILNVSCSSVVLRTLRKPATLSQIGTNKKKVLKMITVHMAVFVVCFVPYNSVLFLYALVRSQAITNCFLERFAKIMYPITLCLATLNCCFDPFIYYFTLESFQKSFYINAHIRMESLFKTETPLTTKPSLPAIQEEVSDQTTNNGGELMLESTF

| SMILES | gel blood flow ratio (Balb/c nu/nu mouse) | EC50 (human LPA4 receptor; [6]) | Emax (human LPA4 receptor; [7]) | EC50 (human LPA1 receptor; [8]) | also measured |
| --- | --- | --- | --- | --- | --- |
| CCc1ccc(CCCCCCCCC(=O)N2CC(OP(=O)(O)O)C2)cc1 [Example 16, 1-[9-(4-Ethylphenyl)nonanoyl]azetidin-3-yl dihydrogen phosphate] | significantly increased | – | – | – | EC50 (human LPA4 receptor; [3]): 12 nM; Emax (human LPA4 receptor; [4]): 162%; EC50 (human LPA1 receptor; [5]): > 10000 nM |
| CCc1ccc(CCCCCCCCC(=O)N2CC(OP(=O)(O)O)C2)cc1 [Example compound 16, 1-[9-(4-Ethylphenyl)nonanoyl]azetidin-3-yl dihydrogen phosphate] | – | – | – | – | tumor volume on Day 15 ([1]; 30 mg/kg i.p. every day combined with paclitaxel 20 mg/kg, vs paclitaxel alone group, t-test p<0.01): further reduced significantly; chemical stability in comparison with LPA ([2]; 60° C. (sealed) for a week): high chemical stability; total ratio (%) of increment of related substances ([2]; 60° C., humidity without artificial control, 1 week): 1.29% |
| CCCCc1ccc(CCCCCCCCC(=O)N2CC(OP(=O)(O)O)C2)cc1 [Example compound 70, 1-[9-(4-Butylphenyl)nonanoyl]azetidin-3-yl dihydrogen phosphate ammonium salt] | significantly increased | – | – | – | EC50 (human LPA4 receptor; [3]): < 41 nM; Emax (human LPA4 receptor; RH7777, BSA not added, Emax of positive control VPC 31144S as 100%, read-out: LPA4/SRE-luc % Emax): 239%; EC50 (human LPA1 receptor; [5]): > 10000 nM |
| O=C(CCCCCCCCc1ccc(-c2ccccc2)cc1)N1CC(OP(=O)(O)O)C1 [Example compound 82, 1-[9-(Biphenyl-4-yl)nonanoyl]azetidin-3-yl dihydrogen phosphate] | significantly increased | 1.9 nM | 129% | > 10000 nM | – |
| CC(C)(C)c1ccc(CCCCCCCCC(=O)N2CC(OP(=O)(O)O)C2)cc1 [Example compound 84, 1-[9-(4-tert-Butylphenyl)nonanoyl]azetidin-3-yl dihydrogen phosphate] | significantly increased | 4.1 nM | 94% | > 3000 nM | – |
| COc1ccc(CN(CCOP(=O)(O)O)C(=O)CCCCc2ccc(OCCc3ccc(OC(F)(F)F)cc3)cc2)cc1 [Example compound 115, 2-{(4-Methoxybenzyl)[5-(4-{2-[4-(trifluoromethoxy)phenyl]ethoxy}phenyl)pentanoyl]amino}ethyl dihydrogen phosphate ammonium salt] | – | < 41 nM | 114% | > 10000 nM | – |
| CCCCCCc1ccc(CCCCCCCCC(=O)N2CC(OP(=O)(O)O)C2)cc1 [Example compound 118, 1-[9-(4-Hexylphenyl)nonanoyl]azetidin-3-yl dihydrogen phosphate] | – | < 41 nM | 114% | > 10000 nM | – |
| COc1ccc(CN(CCOP(=O)(O)O)C(=O)CCCCCc2cccc(CCCCC3CCCCC3)c2)cc1 [Example compound 129, 2-[{6-[3-(4-Cyclohexylbutyl)phenyl]hexanoyl}(4-methoxybenzyl)amino]ethyl dihydrogen phosphate ammonium salt] | – | < 41 nM | 120% | > 10000 nM | – |
| CCCCCCCCCCCOc1cccc(-c2ccnc(NC[C@@H](C)OP(=O)(O)O)c2)c1 [Example compound 133, (2R)-1-({4-[3-(Undecyloxy)phenyl]pyridin-2-yl}amino)propan-2-yl dihydrogen phosphate] | – | < 41 nM | 101% | > 10000 nM | – |
| CCCCCCCCCCCOc1cccc(-c2ccnc(NC[C@@H](C)OP(=O)(O)O)n2)c1 [Example compound 134, (2R)-1-({4-[3-(Undecyloxy)phenyl]pyrimidinyl}amino)propan-2-yl dihydrogen phosphate] | – | < 41 nM | 87% | > 10000 nM | – |
| CCCCCCCCCCCOc1cccc(-c2ccnc(NC[C@@H](C)OP(O)(O)=S)c2)c1 [Example compound 138, O-[(2R)-1-({4-[3-(Undecyloxy)phenyl]pyridin-2-yl}amino)propan-2-yl] dihydrogen phosphorothioate-ammonium salt] | – | – | – | – | EC50 (human LPA4 receptor): < 41 nM; Emax (human LPA4 receptor; [4]): 73%; EC50 (human LPA1 receptor): > 10000 nM |
| CCCCCCCCCCCOc1cccc(-c2ccnc(N[C@@H]3CCC[C@@H]3OP(=O)(O)O)c2)c1 [Example compound 142, (1S,2R)-2-({4-[3-(Undecyloxy)phenyl]pyridin-2-yl}amino)cyclopentyl dihydrogen phosphate ammonium salt] | – | 43 nM | 103% | > 10000 nM | – |
| CC(=O)O[C@H]1C(=O)[C@@]2(C)[C@H]([C@H](OC(=O)c3ccccc3)[C@]3(O)C[C@H](OC(=O)[C@H](O)[C@@H](NC(=O)c4ccccc4)c4ccccc4)C(C)=C1C3(C)C)[C@]1(OC(C)=O)CO[C@@H]1C[C@@H]2O [paclitaxel, reference compound] | – | – | – | – | tumor volume on Day 15 ([1]; paclitaxel alone 20 mg/kg i.p. Day 3 and Day 10, vs solvent administration group, t-test p<0.05): significantly smaller |
